“And” between values parts separate entries of the source, which are not always exact repeats. Equal entries are not always repeated.
System: G-401 tumor spheroids, viability % test/control
Experiment: Anticancer human tumor G-401 cell line growth inhibition;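 also: spheroids exposed to compound for 7 days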;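 as to viability, T/C: 100% = DMSO vehicle-treated spheroids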
Settings: spheroids with HUVEC and MSC; for viability, T/C: stronger effect = lower value; active = viability on the fitted dose curve at most 10% of control; inactive = the rest
From the text: Multicellular complex tumor spheroid response to DNA repair inhibitors in combination with DNA-damaging drugs
This study explores the anticancer activities of DNA-damaging drugs and inhibitors of DNA damage repair, both as single agents and in combinations. Complex tumor spheroids comprised of malignant cells, endothelial cells and mesenchymal stem cells served as an in vitro model for human solid tumors. This model system incorporates physiologically relevant features and patient-derived or established malignant cell lines with clinically relevant genetic alterations from many tumor types. Twenty-six patient-derived or established malignant cell lines were evaluated representing sarcoma, melanoma, small cell lung cancer (SCLC), non-small cell lung cancer (NSCLC), as well as bladder, ovarian and pancreatic cancers. The concentration ranges selected for each drug and investigational agent were based upon clinically achievable concentrations if the clinical Cmax of the agent was known.
Compounds. The drugs and compounds olaparib (NSC753686), talazoparib (NSC767125), berzosertib (NSC777718), elimusertib (NSC800525), nedisertib (NSC802822), VX-984 (NSC792969), AZD-1390 (NSC803789), temozolomide (NSC362856), topotecan (NSC609699), trabectedin (NSC813783), staurosporine (NSC755774), and gemcitabine (NSC613327) were obtained from the National Cancer Institute (NCI) Developmental Therapeutics Program Chemical Repository. The FDA-approved anticancer drug set is available from the Developmental Therapeutics Program at https://dtp.cancer.gov/organization/dscb/obtaining/available_plates.htm. […] The stock solutions were prepared in dimethyl sulfoxide (DMSO, Sigma-Aldrich, St. Louis, MO, cat. D2650) at 400-fold the tested concentration and stored at -70 degrees C. Prior to their use, the stock solutions were diluted in fresh medium and the final DMSO concentration in the assay was 0.25% (v/v). All drugs and investigational agents were tested over a range starting from a high concentration at or near the clinical Cmax and decreasing in half-log increments. If the clinical Cmax for an agent had not been determined, the highest concentration tested was 10 microM.
Cell Lines. The patient-derived cancer cell (PDC) lines: 156681-154-R-J1-PDC, 283228-195-R-J1-PDC, 287954-098-R-J1-PDC, 292921-168-R-J2-PDC, 349418-098-R-PDC, 425362-245-T-J1-PDC, 556581-035-R-J1-PDC, and BL0293-F563-PDC were received from the NCI Patient-Derived Models Repository (PDMR, https://pdmr.cancer.gov). The established cell lines HS-SY-2 (RRID:CVCL_8719), MPNST, and SYO-1 (RRID:CVCL_7146) were obtained from the Sloan Kettering Institute. The alveolar soft parts sarcoma cell line ASPS-1 (RRID:CVCL_S738) was established at the NCI and grown from internal seed stocks. The following established cell lines were purchased from the American Type Culture Collection (ATCC, Manassas, VA): G-401 (ATCC, cat. CRL-1441, RRID:CVCL_0270), SW982 (ATCC, cat. HTB-93, RRID:CVCL_1734), VA-ES-BJ (ATCC, cat. CRL-2138, RRID:CVCL_1785), NCI-H719 (ATCC, cat. CRL-5837, RRID:CVCL_1582), NCI-H196 (ATCC, cat. CRL-5823, RRID:CVCL_1509), NCI-H841 (ATCC, cat. CRL-5845, RRID:CVCL_1595), NCI-H1618 (ATCC, cat. CRL-5879, RRID:CVCL_1480), NCI-H1876 (ATCC, cat. CRL-5902, RRID:CVCL_1503), DMS 114 (ATCC, cat. CRL-2066; RRID:CVCL_1174), NCI-H211 (ATCC, cat. CRL-5824; RRID:CVCL_1529), and SW 1271 (ATCC, cat. CRL-2177, RRID:CVCL_1716). The small cell lung cancer cell line COR-L88 was purchased from Sigma-Aldrich (cat. 92031917-1VL, RRID:CVCL_1141). The non-small cell lung cancer cell lines NCI-H226 (RRID:CVCL_1544) and NCI-H322M (RRID:CVCL_1557) were established at the NCI and grown from internal seed stocks. Pooled donor human umbilical vein endothelial cells (HUVEC, Lonza, cat. CC-2519) and human mesenchymal stem cells (hMSC, Lonza, cat. PT-2501) were purchased from Lonza (Walkersville, MD).
Cell Culture. All cells were maintained in an incubator at 37 degrees C and 5% CO2 with 95% humidity. […]

Cc1sc2c(c1C)C(c1ccc(Cl)cc1)=NC(CC(=O)Nc1ccc(O)cc1)c1nnc(C)n1-2 (configuration not stated) + Cn1nnc2c(C(N)=O)ncn2c1=O
147 nM: IC50 (curve of first compound, second compound 31.6 µM)
163 nM: IC50 (curve of first compound, second compound 10 µM)
179 nM: IC50 (curve of first compound, second compound 3.16 µM)
169 nM: IC50 (curve of first compound, second compound 1 µM)
inactive: viability, T/C (second compound 1 µM, first compound 0.00949 µM) 108% | viability, T/C (second compound 1 µM, first compound 0.03 µM) 83% | viability, T/C (second compound 1 µM, first compound 0.0949 µM) 67.4% | viability, T/C (second compound 1 µM, first compound 0.3 µM) 37.6% | viability, T/C (second compound 1 µM, first compound 0.949 µM) 13.4% | viability, T/C (second compound 3.16 µM, first compound 0.00949 µM) 93% | viability, T/C (second compound 3.16 µM, first compound 0.03 µM) 91.8% | viability, T/C (second compound 3.16 µM, first compound 0.0949 µM) 65.1% | viability, T/C (second compound 3.16 µM, first compound 0.3 µM) 35.6% | viability, T/C (second compound 3.16 µM, first compound 0.949 µM) 19.7% | viability, T/C (second compound 3.16 µM, first compound 3 µM) 8.06% | viability, T/C (second compound 10 µM, first compound 0.00949 µM) 101% | viability, T/C (second compound 10 µM, first compound 0.03 µM) 77.3% | viability, T/C (second compound 10 µM, first compound 0.0949 µM) 63.5% | viability, T/C (second compound 10 µM, first compound 0.3 µM) 38% | viability, T/C (second compound 10 µM, first compound 0.949 µM) 20.9% | viability, T/C (second compound 31.6 µM, first compound 0.00949 µM) 84.5% | viability, T/C (second compound 31.6 µM, first compound 0.03 µM) 82.6% | viability, T/C (second compound 31.6 µM, first compound 0.0949 µM) 56.1% | viability, T/C (second compound 31.6 µM, first compound 0.3 µM) 34% | viability, T/C (second compound 31.6 µM, first compound 0.949 µM) 20.5% | viability, T/C (second compound 100 µM, first compound 0.00949 µM) 102% | viability, T/C (second compound 100 µM, first compound 0.03 µM) 83% | viability, T/C (second compound 100 µM, first compound 0.0949 µM) 64.8% | viability, T/C (second compound 100 µM, first compound 0.3 µM) 30.4% | viability, T/C (second compound 100 µM, first compound 0.949 µM) 11.2%
148 nM: IC50 (curve of first compound, second compound 100 µM)
active: viability, T/C (second compound 1 µM, first compound 3 µM) 10.3% | viability, T/C (second compound 10 µM, first compound 3 µM) 9.13% | viability, T/C (second compound 31.6 µM, first compound 3 µM) 4.42% | viability, T/C (second compound 100 µM, first compound 3 µM) 4.09%

CNCc1ccc(-c2cc(-c3nc(-c4ccc(S(=O)(=O)C(C)C)cc4)cnc3N)on2)cc1
inactive: viability, T/C (compound 0.00949 µM) 97.3% and 93.8% and 100% | viability, T/C (compound 0.03 µM) 102% and 98.4% and 99.4% | viability, T/C (compound 0.0949 µM) 103% and 105% and 101% | viability, T/C (compound 0.3 µM) 96.6% and 96% and 97.9% | viability, T/C (compound 0.949 µM) 71.3% and 64% and 69.4% | viability, T/C (compound 3 µM) 41.7% and 38.1% and 39.8%
2170 nM and 1770 nM and 2020 nM: IC50 (curve of compound)

— PubChem BioAssay AID1845203 (Molecular Pharmacology Branch, DTP, NCI, 2023)
